Several values for one entry are separate records, joined by “and”; a condition that tells them apart may be missing. Equal values may be shown once.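 Grown in 96-well plates, cells were treated for 48 hours with each compound at five concentrations. Insufficient inhibition: endpoint recorded as highest concentration tested. The concentration for 50% growth inhibition is given as GI50. TGI marks complete inhibition of growth.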

We go through 28 compounds from PubChem BioAssay (NCI).

In the first experiment the test system is KM20L2 colon. Put plainly: DTP human tumour cell line panel, 48 h.
In the case of `COC(=O)[C@]1(C)CCCC2(C)C1CC[C@H]1C=C(C)[C@H]3CCC12C3` (stereo not given in full), the TGI was above 100 µM.
The compound `O=C(Nc1cc(Cl)ccc1Cl)c1cc2cccc(Cl)c2oc1=O` showed a concentration for total growth inhibition (TGI) above 100 µM.
The same measure, in the same setting: the figure for `O=c1n(-c2ccccc2)c(=O)n2n1C1C=CC2C2C(C1)C2(Cl)Cl` (stereo not given) is above 100 µM; for `Cc1ccc(Cn2c(C)nc3c2C(=O)c2ccccc2C3=O)cc1` it is above 100 µM; for `CCOC(=O)C(C)(C)Oc1ccc2c(C)c(-c3ccc(Cl)cc3)c(=O)oc2c1` it is above 100 µM.
The same measure, in the same setting: the figure for `Cc1c(Cl)cccc1N1C(=O)C(Cl)=C(Cl)C1=O` is above 100 µM; for `COc1ccc(NC(=O)/C(N=O)=C(/C)O)cc1` it is above 100 µM.
As for `COc1cccc(/C=N/[N-]C(=O)c2ccncc2)c1[O-].[Cu+2].[OH3+]`, the GI50 was 47.9 µM and the TGI was above 100 µM.
The compound `CCc1c(OC(C)=O)c2c(NC3OC(COC(C)=O)C(OC(C)=O)C(OC(C)=O)C3OC(C)=O)nc(OC)nc2oc1=O` (stereo not given) returned a TGI above 100 µM.
Still for that read-out and setting: the figure for `O=[N+]([O-])c1ccc(-n2nnc(C3=NCCN3)c2-c2ccc(Cl)cc2)cc1` is above 100 µM; for `CCC1C2C=CC(CC2)N1S(=O)(=O)c1ccc(C)cc1` (stereo not given) it is 38.2 µM.
Same read-out and setting: the figure for `COc1ccc(-c2cc(-c3ccccc3)c(C#N)c(=O)n2C2OC(CO)C(O)C(O)C2O)cc1` (stereo not given) is above 100 µM; for `CCOC(=O)C1(c2ccccc2)CCC(=O)CC1` it is above 100 µM.
Same read-out and setting: the figure for `O=C(N/N=C1/C(=O)N(c2ccc(Cl)cc2Cl)C(=O)C(=O)C1c1nc2ccccc2o1)c1ccccc1O` (stereo not given) is above 100 µM.
Compound `CC(=O)O[C@H]1CCC2[C@@H]3CCC4=C(O)c5nocc5C[C@]4(C)C3CC[C@@]21C` (stereo not given in full) gave a TGI above 100 µM.
Regarding `O=C(O)CSc1n[nH]c(-c2ccccc2)n1`, the TGI is above 100 µM.
With `O=C(O)[C@H](NS(=O)(=O)c1ccc2ccccc2c1)c1ccccc1`, the TGI was above 100 µM.

The next experiment deals with NCI-H460 lung. Put plainly: DTP human tumour cell line panel, 48 h.
Regarding `c1ccc(SC2CCSc3ccccc3C2Sc2ccccc2)cc1` (stereo not given), the TGI is above 100 µM.
The same measure, in the same setting: the figure for `COC(=O)[C@]1(C)CCCC2(C)C1CC[C@H]1C=C(C)[C@H]3CCC12C3` (stereo not given in full) is above 100 µM.
Consider `O=C(Nc1cc(Cl)ccc1Cl)c1cc2cccc(Cl)c2oc1=O`, for which the TGI was above 100 µM.
In turn, `O=c1n(-c2ccccc2)c(=O)n2n1C1C=CC2C2C(C1)C2(Cl)Cl` (stereo not given) registered a total growth inhibition concentration (TGI) above 100 µM.
Same read-out and setting: the figure for `Cc1ccc(Cn2c(C)nc3c2C(=O)c2ccccc2C3=O)cc1` is 3.13 µM; for `CCOC(=O)C(C)(C)Oc1ccc2c(C)c(-c3ccc(Cl)cc3)c(=O)oc2c1` it is above 100 µM.
The compound `Cc1c(Cl)cccc1N1C(=O)C(Cl)=C(Cl)C1=O` returned a TGI above 100 µM.
On the same count and under the same terms, the figure for `COc1ccc(NC(=O)/C(N=O)=C(/C)O)cc1` is 53.5 µM.
Turning to `COc1cccc(/C=N/[N-]C(=O)c2ccncc2)c1[O-].[Cu+2].[OH3+]`, the GI50 is 28.7 µM and the TGI was above 100 µM.
`CCc1c(OC(C)=O)c2c(NC3OC(COC(C)=O)C(OC(C)=O)C(OC(C)=O)C3OC(C)=O)nc(OC)nc2oc1=O` (stereo not given) showed a TGI above 100 µM.
Still for that read-out and setting: the figure for `O=C(NC(=O)c1cn(CCNCCO)c(=O)[nH]c1=O)OCc1ccccc1` is above 100 µM; for `O=[N+]([O-])c1ccc(-n2nnc(C3=NCCN3)c2-c2ccc(Cl)cc2)cc1` it is above 100 µM; for `O=C(c1ccc(Cl)cc1)c1cnc(Nc2ccccc2Cl)s1` it is above 59.8 µM.
Still for that read-out and setting: the figure for `CCC1C2C=CC(CC2)N1S(=O)(=O)c1ccc(C)cc1` (stereo not given) is 52.1 µM.
On the same count and under the same terms, the figure for `CCOc1ccc(N2C(=O)/C(=C/c3ccc(N(CCC#N)CCC#N)cc3)N=C2c2cc([N+](=O)[O-])ccc2Cl)cc1` is 55.7 µM; for `COc1ccc(-c2cc(-c3ccccc3)c(C#N)c(=O)n2C2OC(CO)C(O)C(O)C2O)cc1` (stereo not given) it is above 100 µM.
Regarding `CCOC(=O)C1(c2ccccc2)CCC(=O)CC1`, the TGI is above 100 µM.
In turn, `O=C(N/N=C1/C(=O)N(c2ccc(Cl)cc2Cl)C(=O)C(=O)C1c1nc2ccccc2o1)c1ccccc1O` (stereo not given) yielded a TGI above 100 µM.
Still for that read-out and setting: the figure for `CC(=O)O[C@H]1CCC2[C@@H]3CCC4=C(O)c5nocc5C[C@]4(C)C3CC[C@@]21C` (stereo not given in full) is above 100 µM; for `O=C(O)CSc1n[nH]c(-c2ccccc2)n1` it is above 100 µM.
Take `O=c1cc2oc3cc(O)c(O)cc3c(-c3ccccc3O)c-2cc1O`: the GI50 is 21.5 µM and the TGI came to 82.6 µM.
As to `C[C@H]1Oc2cc(cnc2N)-c2c(nn(C)c2C#N)CN(C)C(=O)c2ccc(F)cc21`, the GI50 is 28.2 µM and the TGI was above 100 µM.
The corresponding values for `COc1ccccc1N1CCN(CCCn2c(=O)c3c(OC)nc(C)cc3c(=O)n2-c2ccccc2)CC1` are above 100 µM and above 100 µM.
In turn, `Cc1ccc(-c2nc3ccc([N+](=O)[O-])cc3[nH]2)cc1` gave a TGI above 100 µM.
Same read-out and setting: the figure for `O=C(O)[C@H](NS(=O)(=O)c1ccc2ccccc2c1)c1ccccc1` is above 100 µM.
With `CC(=O)c1cc2c(o1)C(=O)c1ccccc1C2=O`, the GI50 is 0.21 µM and 0.194 µM; the TGI is 0.422 µM and 0.375 µM.
Consider `CCN(CC)c1nc(-c2ccc(Cl)cc2Cl)nc2ccccc12`, for which the GI50 was 23.9 µM and the TGI is above 79.5 µM.
Turning to `Cc1nc2ccccc2nc1-c1ccc(N=[N+]([O-])c2ccc(-c3nc4ccccc4nc3C)cc2)cc1`, the TGI is above 100 µM.

The test system of another experiment is DLD-1 colon. Nature of the experiment: DTP human tumour cell line panel, 48 h.
In turn, `c1ccc(SC2CCSc3ccccc3C2Sc2ccccc2)cc1` (stereo not given) gave a TGI above 100 µM.
`COC(=O)[C@]1(C)CCCC2(C)C1CC[C@H]1C=C(C)[C@H]3CCC12C3` (stereo not given in full) registered a TGI above 100 µM.
On the same count and under the same terms, the figure for `O=C(Nc1cc(Cl)ccc1Cl)c1cc2cccc(Cl)c2oc1=O` is above 100 µM; for `O=c1n(-c2ccccc2)c(=O)n2n1C1C=CC2C2C(C1)C2(Cl)Cl` (stereo not given) it is above 100 µM.
The same measure, in the same setting: the figure for `Cc1ccc(Cn2c(C)nc3c2C(=O)c2ccccc2C3=O)cc1` is above 100 µM.
On the same count and under the same terms, the figure for `CCOC(=O)C(C)(C)Oc1ccc2c(C)c(-c3ccc(Cl)cc3)c(=O)oc2c1` is above 100 µM; for `Cc1c(Cl)cccc1N1C(=O)C(Cl)=C(Cl)C1=O` it is above 100 µM.
For the compound `COc1ccc(NC(=O)/C(N=O)=C(/C)O)cc1`, the TGI is above 100 µM.
In the case of `COc1cccc(/C=N/[N-]C(=O)c2ccncc2)c1[O-].[Cu+2].[OH3+]`, the GI50 is 52.6 µM and the TGI was above 100 µM.
Consider `CCc1c(OC(C)=O)c2c(NC3OC(COC(C)=O)C(OC(C)=O)C(OC(C)=O)C3OC(C)=O)nc(OC)nc2oc1=O` (stereo not given), for which the TGI is above 100 µM.
Still for that read-out and setting: the figure for `O=C(NC(=O)c1cn(CCNCCO)c(=O)[nH]c1=O)OCc1ccccc1` is above 100 µM; for `O=[N+]([O-])c1ccc(-n2nnc(C3=NCCN3)c2-c2ccc(Cl)cc2)cc1` it is above 100 µM.
